Source: paper PMC5122408, “High throughput chemical library screening identifies a novel p110-δ inhibitor that potentiates the anti-myeloma effect of bortezomib” (Oncotarget, 2016)
Like-named read-outs stand apart in the source and are kept apart here.

Assays:
NCI-H460 = assay: NCI-60 panel cell growth screen; assay type: cell-based, human; settings: NCI-H460 (NSCLC)
SF-295 = assay: NCI-60 panel cell growth screen; assay type: cell-based, human; settings: SF-295 (CNS Cancer)
VPS34 = VPS34 (Homo sapiens, UniProt Q8NEB9); assay: Kinase inhibitory profile; assay type: biochemical; settings: Class III PI3Ks; 10-point concentration assays
Sequence of VPS34 (Q8NEB9 whole entry): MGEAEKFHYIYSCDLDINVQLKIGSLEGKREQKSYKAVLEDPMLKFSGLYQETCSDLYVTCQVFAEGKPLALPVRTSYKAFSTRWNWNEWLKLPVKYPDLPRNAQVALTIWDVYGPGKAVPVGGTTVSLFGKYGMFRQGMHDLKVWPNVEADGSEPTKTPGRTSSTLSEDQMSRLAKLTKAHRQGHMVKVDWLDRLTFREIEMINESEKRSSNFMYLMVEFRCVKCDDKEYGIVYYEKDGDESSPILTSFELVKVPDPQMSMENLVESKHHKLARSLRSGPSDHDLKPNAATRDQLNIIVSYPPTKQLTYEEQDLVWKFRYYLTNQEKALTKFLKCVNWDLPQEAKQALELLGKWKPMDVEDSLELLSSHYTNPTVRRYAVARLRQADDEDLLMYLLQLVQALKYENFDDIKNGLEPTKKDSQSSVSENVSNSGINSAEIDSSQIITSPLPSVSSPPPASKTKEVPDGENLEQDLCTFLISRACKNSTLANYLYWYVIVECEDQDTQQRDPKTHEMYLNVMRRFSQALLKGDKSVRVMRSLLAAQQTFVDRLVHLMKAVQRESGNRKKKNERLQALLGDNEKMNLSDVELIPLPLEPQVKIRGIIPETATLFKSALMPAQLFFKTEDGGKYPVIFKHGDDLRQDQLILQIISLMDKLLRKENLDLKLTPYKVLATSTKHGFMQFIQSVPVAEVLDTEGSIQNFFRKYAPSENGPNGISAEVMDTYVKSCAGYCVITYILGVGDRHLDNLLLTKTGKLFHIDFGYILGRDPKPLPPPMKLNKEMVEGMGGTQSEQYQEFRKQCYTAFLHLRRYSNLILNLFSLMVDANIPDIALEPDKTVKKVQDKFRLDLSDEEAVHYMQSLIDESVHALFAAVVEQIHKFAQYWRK

[1] = test system: peripheral blood mononuclear cells (PBMCs); assay: Apoptosis (in situ cell death detection) in PBMCs; assay type: cell-based; settings: Figure 5B
MM.1S myeloma cells = assay: Mouse xenograft model of myeloma; assay type: in vivo, mice; settings: subcutaneous myeloma xenograft; intravenous; bortezomib 0.5 mg/kg, DT97 10 mg/kg
Procedure: Five week old nude mice flanks are injected subcutaneously with MM.1S myeloma cells. Tumors formed within two weeks and mice were then treated intravenously with vehicle, bortezomib, DT97 or both bortezomib and DT97.
Subcutaneous tumors were generated after injection of myeloma cells. […] Vehicle or bortezomib was administered on days 1, 4, 8 and 11. Mice were euthanized when tumors reached 2 cm^3, became ulcerated or elicited neurologic or musculoskeletal complications that limited mobility and feeding. Survival and tumor growth were evaluated from the first day of treatment. Shown is the average of replicate measurements. […] Kaplan-Meier survival curves comparison of NOD. SCID mice after subcutaneous injection of parental myeloma cells treated with vehicle, DT97, bortezomib or both.
Mice received intravenous injection of either vehicle (PBS in 10% DMSO); bortezomib (0.5 mg/kg), DT97 (10 mg/kg) or both bortezomib and DT97. Tumor volume (TV) measurements were made using a vernier caliper and calculated using the formula: TV = 0.5 (a × b^2) where a is the long diameter and b the short diameter. Mice were euthanized when tumors reached 2 cm^3, became ulcerated or elicited neurologic or musculoskeletal complications that limited mobility and feeding.
In vivo statistical tests were performed using the 2-tailed Student t test.

HO-92 = assay: NCI-60 panel cell growth screen; assay type: cell-based, human; settings: HO-92 (NSCLC)
PDGFR = assay: Kinase inhibitory profile; assay type: biochemical; settings: Other Clinically-relevant Kinases; 10-point concentration assays
A549 = assay: NCI-60 panel cell growth screen; assay type: cell-based, human; settings: A549 (NSCLC)
PKCγ = assay: Kinase inhibitory profile; assay type: biochemical; settings: Class II PI3Ks; 10-point concentration assays
RPMI-8226 = assay: NCI-60 panel cell growth screen; assay type: cell-based, human; settings: RPMI-8226 (Leukemia)
HL-60 (TB) = HL-60 (TB) (Leukemia)
COLO205 = assay: NCI-60 panel cell growth screen; assay type: cell-based, human; settings: COLO205 (Colon cancer)
HCT-15 = assay: NCI-60 panel cell growth screen; assay type: cell-based, human; settings: HCT-15 (Colon cancer)
EKVX = assay: NCI-60 panel cell growth screen; assay type: cell-based, human; settings: EKVX (NSCLC)
mTOR = mTOR (Homo sapiens, UniProt P42345); assay: Kinase inhibitory profile; assay type: biochemical; settings: Class IV PI3Ks; 10-point concentration assays
PKC2-α = PKC2-α (Homo sapiens, UniProt O00443); assay: Kinase inhibitory profile; assay type: biochemical; settings: Class II PI3Ks; 10-point concentration assays
Sequence of PKC2-α (O00443 whole entry): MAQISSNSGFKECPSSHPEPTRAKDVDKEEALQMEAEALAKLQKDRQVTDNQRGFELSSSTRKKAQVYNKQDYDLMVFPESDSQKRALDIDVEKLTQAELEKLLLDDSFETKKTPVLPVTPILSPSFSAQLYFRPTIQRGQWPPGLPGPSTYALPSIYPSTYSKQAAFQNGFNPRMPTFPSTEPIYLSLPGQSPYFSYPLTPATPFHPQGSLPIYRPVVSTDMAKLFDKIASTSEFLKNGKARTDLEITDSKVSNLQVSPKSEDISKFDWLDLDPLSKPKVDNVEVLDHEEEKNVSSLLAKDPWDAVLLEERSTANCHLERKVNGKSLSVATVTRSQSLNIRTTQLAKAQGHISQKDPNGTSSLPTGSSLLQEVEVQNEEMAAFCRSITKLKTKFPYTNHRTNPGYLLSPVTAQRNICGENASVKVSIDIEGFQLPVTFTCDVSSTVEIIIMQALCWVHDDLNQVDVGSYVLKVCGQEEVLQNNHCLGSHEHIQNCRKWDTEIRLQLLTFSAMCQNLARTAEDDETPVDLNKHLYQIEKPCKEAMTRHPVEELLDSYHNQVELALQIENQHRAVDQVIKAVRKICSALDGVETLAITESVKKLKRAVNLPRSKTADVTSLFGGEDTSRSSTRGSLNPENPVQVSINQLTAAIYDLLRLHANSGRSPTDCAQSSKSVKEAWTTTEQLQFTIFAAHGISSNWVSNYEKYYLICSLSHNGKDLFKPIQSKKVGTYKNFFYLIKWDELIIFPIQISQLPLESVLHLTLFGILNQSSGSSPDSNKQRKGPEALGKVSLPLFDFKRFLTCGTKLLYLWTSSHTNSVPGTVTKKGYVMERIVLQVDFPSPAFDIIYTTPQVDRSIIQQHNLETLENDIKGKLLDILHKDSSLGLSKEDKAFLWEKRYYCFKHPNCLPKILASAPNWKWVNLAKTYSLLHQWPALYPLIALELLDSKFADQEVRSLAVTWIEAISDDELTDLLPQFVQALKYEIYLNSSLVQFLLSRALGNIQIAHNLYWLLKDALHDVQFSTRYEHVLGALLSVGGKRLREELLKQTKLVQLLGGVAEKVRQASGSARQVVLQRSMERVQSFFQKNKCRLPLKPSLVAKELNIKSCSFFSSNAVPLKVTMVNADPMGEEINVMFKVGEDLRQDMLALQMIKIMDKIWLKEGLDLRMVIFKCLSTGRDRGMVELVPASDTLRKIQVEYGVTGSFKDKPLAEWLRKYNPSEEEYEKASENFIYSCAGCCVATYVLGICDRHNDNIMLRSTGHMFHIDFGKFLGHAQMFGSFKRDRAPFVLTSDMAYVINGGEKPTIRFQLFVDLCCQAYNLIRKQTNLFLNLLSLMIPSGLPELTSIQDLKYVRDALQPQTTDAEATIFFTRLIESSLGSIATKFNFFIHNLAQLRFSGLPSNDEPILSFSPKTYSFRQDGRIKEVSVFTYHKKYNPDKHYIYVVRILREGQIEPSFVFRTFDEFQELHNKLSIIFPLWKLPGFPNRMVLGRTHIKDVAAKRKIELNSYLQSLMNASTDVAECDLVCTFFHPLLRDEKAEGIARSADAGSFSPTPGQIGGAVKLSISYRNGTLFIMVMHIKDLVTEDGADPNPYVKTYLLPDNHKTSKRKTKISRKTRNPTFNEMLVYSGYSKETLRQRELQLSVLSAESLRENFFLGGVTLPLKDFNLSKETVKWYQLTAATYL

ERBB4 = ERBB4 (Homo sapiens, UniProt Q15303); assay: Kinase inhibitory profile; assay type: biochemical; settings: Other Clinically-relevant Kinases; 10-point concentration assays
Sequence of ERBB4 (Q15303 26-1308): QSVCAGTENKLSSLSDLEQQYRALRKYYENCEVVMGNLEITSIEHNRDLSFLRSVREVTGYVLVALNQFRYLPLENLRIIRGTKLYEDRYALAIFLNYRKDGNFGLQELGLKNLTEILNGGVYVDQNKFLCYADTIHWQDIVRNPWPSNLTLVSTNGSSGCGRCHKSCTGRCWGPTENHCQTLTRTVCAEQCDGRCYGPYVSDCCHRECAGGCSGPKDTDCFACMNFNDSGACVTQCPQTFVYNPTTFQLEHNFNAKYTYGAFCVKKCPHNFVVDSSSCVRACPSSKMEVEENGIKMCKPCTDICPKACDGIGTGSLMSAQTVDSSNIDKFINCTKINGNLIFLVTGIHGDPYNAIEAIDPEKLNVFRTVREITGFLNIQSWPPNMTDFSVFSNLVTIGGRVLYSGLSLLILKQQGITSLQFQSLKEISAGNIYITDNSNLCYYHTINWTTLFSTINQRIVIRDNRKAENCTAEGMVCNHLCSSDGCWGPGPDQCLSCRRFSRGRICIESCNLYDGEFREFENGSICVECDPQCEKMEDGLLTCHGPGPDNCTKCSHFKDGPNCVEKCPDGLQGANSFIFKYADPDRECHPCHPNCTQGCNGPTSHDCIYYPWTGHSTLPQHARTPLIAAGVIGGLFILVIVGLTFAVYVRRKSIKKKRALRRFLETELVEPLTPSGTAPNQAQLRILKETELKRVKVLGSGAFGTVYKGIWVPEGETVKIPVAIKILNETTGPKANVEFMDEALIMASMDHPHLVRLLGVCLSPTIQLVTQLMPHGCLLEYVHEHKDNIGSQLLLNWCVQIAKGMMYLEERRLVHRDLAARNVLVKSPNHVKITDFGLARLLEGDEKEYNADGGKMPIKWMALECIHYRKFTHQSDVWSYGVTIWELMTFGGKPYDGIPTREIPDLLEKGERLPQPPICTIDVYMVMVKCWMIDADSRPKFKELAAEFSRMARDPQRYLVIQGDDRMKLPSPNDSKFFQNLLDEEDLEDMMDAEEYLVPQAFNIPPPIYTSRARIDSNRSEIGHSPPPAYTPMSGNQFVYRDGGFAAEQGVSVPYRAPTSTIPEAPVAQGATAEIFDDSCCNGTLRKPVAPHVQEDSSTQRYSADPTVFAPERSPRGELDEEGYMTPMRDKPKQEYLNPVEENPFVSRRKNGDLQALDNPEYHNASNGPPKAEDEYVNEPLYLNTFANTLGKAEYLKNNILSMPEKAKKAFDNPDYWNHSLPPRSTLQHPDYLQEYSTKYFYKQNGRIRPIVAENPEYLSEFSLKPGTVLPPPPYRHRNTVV

KM12 = assay: NCI-60 panel cell growth screen; assay type: cell-based, human; settings: KM12 (Colon cancer)
SW-620 = assay: NCI-60 panel cell growth screen; assay type: cell-based, human; settings: SW-620 (Colon cancer)
FGFR = assay: Kinase inhibitory profile; assay type: biochemical; settings: Other Clinically-relevant Kinases; 10-point concentration assays
RPMI8226 cells = assay: XTT viability of RPMI8226 cells after PIK3CD shRNA knockdown; assay type: cell-based; settings: XTT assay
Procedure: Values represent the average of triplicate measurements. […] Values represent the average of triplicate measurements. […] Values represent the average of triplicate measurements.
Cells were plated, treated as indicated for 72 h and 2, 3-bis-(2-methoxy-4-nitro-5-sulfophenyl)-2H-tetrazolium-5-carboxanilide) added (Sigma-Aldrich) after activation with N-methyl dibenzopyrazine methyl sulfate (Sigma-Aldrich). Absorbance was measured and the effect on myeloma viability determined as previously described. Assays were performed in triplicate and the mean and standard deviation determined. Relative cell viability (mean ± SD) was calculated compared to readings from untreated cells.
shRNA in pLKO.1-TCR lentiviral cloning vectors were transfected into 293T packaging cells with packaging and envelope vector using lipofectamine 2000 (Thermo-Fisher). Viral supernatants were used to transduce myeloma cells. After 48 h, virus was collected and RPMI8226 cells transduced with vectors expressing scrambled (control) or p110-specific shRNA. Cells were mixed with virus and polybrene (8 μg/mL), centrifuged at 2000 × rpm for 90 min, incubated overnight, media changed and selected in puromycin.

AMPK = assay: Kinase inhibitory profile; assay type: biochemical; settings: Other Clinically-relevant Kinases; 10-point concentration assays
[2] = read-out: LC50 (the source's name)

N-[4-hydroxy-3-(8-quinolinylthio)-1-naphthyl]benzenesulfonamide [DT97]
GI50 (NCI-H460): 499 nM
TGI (NCI-H460): 1.37E-5
Percent Growth (NCI-H460; log concentration −4.0): −48%
Percent Growth (NCI-H460; log concentration −5.0): 7%
Percent Growth (NCI-H460; log concentration −6.0): 29%
Percent Growth (NCI-H460; log concentration −7.0): 98%
Percent Growth (NCI-H460; log concentration −8.0): 101%
GI50 (SF-295): 2840 nM
TGI (SF-295): 1.50E-5
Percent Growth (SF-295; log concentration −4.0): −78%
Percent Growth (SF-295; log concentration −5.0): 17%
Percent Growth (SF-295; log concentration −6.0): 78%
Percent Growth (SF-295; log concentration −7.0): 94%
Percent Growth (SF-295; log concentration −8.0): 92%
CC50 (SF-295; [2]): 50700 nM
Inhibitory profile (kinase inhibition) (VPS34): none
apoptosis [1]: did not induce apoptosis
overall survival (OS) (MM.1S myeloma cells): 16 days
GI50 (HO-92): 2610 nM
TGI (HO-92): 7.38E-6
Percent Growth (HO-92; log concentration −4.0): −89%
Percent Growth (HO-92; log concentration −5.0): −15%
Percent Growth (HO-92; log concentration −6.0): 96%
Percent Growth (HO-92; log concentration −7.0): 77%
Percent Growth (HO-92; log concentration −8.0): 84%
CC50 (HO-92; [2]): 29800 nM
Inhibitory profile (kinase inhibition) (PDGFR): none
GI50 (A549): 747 nM
TGI (A549): 1.81E-5
Percent Growth (A549; log concentration −4.0): −46%
Percent Growth (A549; log concentration −5.0): 16%
Percent Growth (A549; log concentration −6.0): 41%
Percent Growth (A549; log concentration −7.0): 112%
Percent Growth (A549; log concentration −8.0): 106%
Inhibitory profile (kinase inhibition) (PKCγ): none
GI50 (RPMI-8226): 2380 nM
TGI (RPMI-8226): 7.90E-6
Percent Growth (RPMI-8226; log concentration −4.0): −9%
Percent Growth (RPMI-8226; log concentration −5.0): −10%
Percent Growth (RPMI-8226; log concentration −6.0): 86%
Percent Growth (RPMI-8226; log concentration −7.0): 92%
Percent Growth (RPMI-8226; log concentration −8.0): 101%
CC50 (RPMI-8226; [2]): > 100000 nM
GI50 (HL-60 (TB)): 487 nM
TGI (HL-60 (TB)): 4.69E-6
Percent Growth (HL-60 (TB); log concentration −4.0): −63%
Percent Growth (HL-60 (TB); log concentration −5.0): −15%
Percent Growth (HL-60 (TB); log concentration −6.0): 31%
Percent Growth (HL-60 (TB); log concentration −7.0): 93%
Percent Growth (HL-60 (TB); log concentration −8.0): 99%
CC50 (HL-60 (TB); read-out: LC50): 53100 nM
GI50 (COLO205): 1710 nM
TGI (COLO205): 3.70E-6
Percent Growth (COLO205; log concentration −4.0): −59%
Percent Growth (COLO205; log concentration −5.0): −64%
Percent Growth (COLO205; log concentration −6.0): 85%
Percent Growth (COLO205; log concentration −7.0): 99%
Percent Growth (COLO205; log concentration −8.0): 94%
CC50 (COLO205; [2]): 8030 nM
GI50 (HCT-15): 464 nM
TGI (HCT-15): 2.50E-6
Percent Growth (HCT-15; log concentration −4.0): −70%
Percent Growth (HCT-15; log concentration −5.0): −40%
Percent Growth (HCT-15; log concentration −6.0): 27%
Percent Growth (HCT-15; log concentration −7.0): 97%
Percent Growth (HCT-15; log concentration −8.0): 100%
CC50 (HCT-15; [2]): 21200 nM
GI50 (EKVX): 1010 nM
TGI (EKVX): 8.55E-6
Percent Growth (EKVX; log concentration −4.0): −99%
Percent Growth (EKVX; log concentration −5.0): −4%
Percent Growth (EKVX; log concentration −6.0): 50%
Percent Growth (EKVX; log concentration −7.0): 93%
Percent Growth (EKVX; log concentration −8.0): 97%
Inhibitory profile (kinase inhibition) (mTOR): +
Inhibitory profile (kinase inhibition) (PKC2-α): none
Inhibitory profile (kinase inhibition) (ERBB4): +
GI50 (KM12): 2030 nM
TGI (KM12): 1.65E-5
Percent Growth (KM12; log concentration −4.0): −87%
Percent Growth (KM12; log concentration −5.0): 24%
Percent Growth (KM12; log concentration −6.0): 61%
Percent Growth (KM12; log concentration −7.0): 104%
Percent Growth (KM12; log concentration −8.0): 104%
CC50 (KM12; [2]): 46600 nM
GI50 (SW-620): 1040 nM
TGI (SW-620): 1.16E-5
Percent Growth (SW-620; log concentration −4.0): −49%
Percent Growth (SW-620; log concentration −5.0): 3%
Percent Growth (SW-620; log concentration −6.0): 51%
Percent Growth (SW-620; log concentration −7.0): 88%
Percent Growth (SW-620; log concentration −8.0): 94%
CC50 (SW-620; [2]): > 100000 nM
Inhibitory profile (kinase inhibition) (FGFR): none
viability (RPMI8226 cells): little effect
Inhibitory profile (kinase inhibition) (AMPK): +
